# Test system: normal human dermal fibroblasts (NHDF)
# Experiment: Gene expression in NHDF, full transcriptome analysis with Affymetrix U219 microarray
# Assay type: cell-based
# Conditions: NHDF
# Procedure: In the present study, the transcriptional effects (modulation of gene expression) of compounds 1, 2, 3 and 4 were evaluated on normal human dermal fibroblasts (NHDF) under basal conditions.
# More specifically, the comparative analysis of the different transcriptomic profiles was performed using an Affymetrix GeneAtlas platform and the human “full transcriptome” U219 chip, which includes 36,000 transcripts and variants.
# Fibroblasts were seeded in 24-well plates and cultured in culture medium for 24 hours. The medium was then replaced by assay medium and cells were incubated for further 24 hours. The medium was replaced by assay medium containing or not (control) the test compounds at different concentrations and the cells were preincubated for 24 hours. All experimental conditions were performed in triplicate. At the end of incubation, the culture supernatants were removed and the cells were washed in a phosphate buffered saline (PBS) solution and immediately frozen at −80° C.
# Before RNA extraction, the replicates were pooled. Total RNA was extracted from each sample using TriPure Isolation Reagent® according to the supplier's instructions. The amount and quality of total RNA were evaluated for all samples using capillary electrophoresis (Bioanalyzer 2100, Agilent technologies). From each RNA, a labeled and amplified anti-sens RNA (aRNA) was obtained using GeneChip 3′IVT PLUS Kit (Affymetrix). For each labeled and amplified aRNA sample the profiles were evaluated before and after fragmentation using capillary electrophoresis (Bioanalyzer 2100, Agilent technologies). Hybridization of fragmented aRNA onto Affymetrix® U219 chip (36,000 transcripts and variants) was performed in the GeneAtlas™ fluidics Affymetrix® hybridization station for 20 hours at 45° C. U219 chip was analyzed using the GeneAtlas™ Imaging station (Affymetrix®—resolution 2 μm) to generate fluorescence intensity data.
# Expression Console and Quality controls: data were normalized with the Expression Console (Affymetrix®) software using RMA algorithm. Then a quality control of the labeling and the hybridization was performed. Hybridization and labeling steps successfully passed the quality controls for these experiments.
# Data reduction, Excel file description: once normalized with Expression Console, data were transferred into a Microsoft Excel® file in order to go further into data reduction.
# Calculation and tools were added in order to rank and sort data, and finally to support data interpretation. Detection thresholds in terms of fold change were defined and applied on normalized data.
# Results are considered and presented or commented per gene (and not probe). A probe set is a collection of probes designed to interrogate a given sequence of a gene. For data interpretation, the most important relative expression value obtained with one probe is considered to be representative of the corresponding gene. The file contains the following data: • Relative expression (RE) for each sample, • Fold change calculation, • Gene information.
# [1] = relative expression adjusted to detection limit (<20), 10 mg/ml, 24 h
smiles,measurement,setting,value
C[C@H](NC(=O)[C@H](C)NC(=O)[C@@H](N)CCCCNCC(F)(F)[C@]1(O)O[C@H](CO)[C@H](O)[C@H](O)[C@H]1O)C(=O)O [Compound 1],effect of treatment of NHDF on lipid synthesis (transcriptional),,up regulation of lipid and cholesterol synthesis
same,"Fold change, ABCA1","10 mg/ml, 24 h, vs control",2.11
same,"Fold change, ABHD4","10 mg/ml, 24 h, vs control",2.05
same,"Fold change, ABHD5","10 mg/ml, 24 h, vs control",2.63
same,"Fold change, ACAT2","10 mg/ml, 24 h, vs control",2.12
same,"Fold change, AKR1C1","10 mg/ml, 24 h, vs control",2.13
same,"Fold change, AKR1C2","10 mg/ml, 24 h, vs control",2.60
same,"Fold change, CH25H","10 mg/ml, 24 h, vs control",0.36
same,"Fold change, CYP51A1///LRRD1","10 mg/ml, 24 h, vs control",2.20
same,"Fold change, DHCR7","10 mg/ml, 24 h, vs control",3.68
same,"Fold change, HMGCR","10 mg/ml, 24 h, vs control",2.02
same,"Fold change, HSD17B7","10 mg/ml, 24 h, vs control",2.44
same,"Fold change, HSD17B14","10 mg/ml, 24 h, vs control",2.00
same,"Fold change, IDI1","10 mg/ml, 24 h, vs control",2.01
same,"Fold change, LPIN1","10 mg/ml, 24 h, vs control",2.46
same,"Fold change, LRP8","10 mg/ml, 24 h, vs control",2.95
same,"Fold change, MSMO1","10 mg/ml, 24 h, vs control",2.03
same,"Fold change, MVD","10 mg/ml, 24 h, vs control",2.45
same,"Fold change, NEU1","10 mg/ml, 24 h, vs control",2.74
same,"Fold change, PCYT2","10 mg/ml, 24 h, vs control",2.41
same,"Fold change, PLD1","10 mg/ml, 24 h, vs control",2.15
same,"Fold change, PTPLA","10 mg/ml, 24 h, vs control",2.31
same,"Fold change, SOAT1","10 mg/ml, 24 h, vs control",2.01
same,"Fold change, SREBF1","10 mg/ml, 24 h, vs control",3.24
same,"Fold change, DHCR24","10 mg/ml, 24 h, vs control, probe set 11715460_a_at",2.05
same,"Fold change, POR","10 mg/ml, 24 h, vs control, probe set 11716114_x_at",2.20
same,"Fold change, INSIG1","10 mg/ml, 24 h, vs control, probe set 11716337_s_at",2.46
same,"Fold change, INSIG1","10 mg/ml, 24 h, vs control, probe set 11716338_a_at",3.42
same,"Fold change, INSIG1","10 mg/ml, 24 h, vs control, probe set 11716339_a_at",3.38
same,"Fold change, HMGCS1","10 mg/ml, 24 h, vs control, probe set 11716987_a_at",3.15
same,"Fold change, APOD","10 mg/ml, 24 h, vs control, probe set 11717295_s_at",0.30
same,"Fold change, LSS","10 mg/ml, 24 h, vs control, probe set 11717620_a_at",2.08
same,"Fold change, EBP","10 mg/ml, 24 h, vs control, probe set 11717859_a_at",2.68
same,"Fold change, FDPS","10 mg/ml, 24 h, vs control, probe set 11718366_s_at",2.02
same,"Fold change, MVK","10 mg/ml, 24 h, vs control, probe set 11719098_a_at",2.08
same,"Fold change, GBA///GBAP1","10 mg/ml, 24 h, vs control, probe set 11719908_a_at",2.93
same,"Fold change, LDLR","10 mg/ml, 24 h, vs control, probe set 11720028_x_at",2.53
same,"Fold change, LDLR","10 mg/ml, 24 h, vs control, probe set 11720029_a_at",2.11
same,"Fold change, PTGS1","10 mg/ml, 24 h, vs control, probe set 11722208_a_at",2.77
same,"Fold change, PTGS1","10 mg/ml, 24 h, vs control, probe set 11722209_a_at",2.62
same,"Fold change, PTGS1","10 mg/ml, 24 h, vs control, probe set 11722210_a_at",3.14
same,"Fold change, LSS","10 mg/ml, 24 h, vs control, probe set 11724199_x_at",2.21
same,"Fold change, PGS1","10 mg/ml, 24 h, vs control, probe set 11724792_a_at",2.01
same,"Fold change, KDSR","10 mg/ml, 24 h, vs control, probe set 11730180_s_at",2.16
same,"Fold change, KDSR","10 mg/ml, 24 h, vs control, probe set 11730181_s_at",2.29
same,"Fold change, LSS","10 mg/ml, 24 h, vs control, probe set 11731324_a_at",2.53
same,"Fold change, GBA","10 mg/ml, 24 h, vs control, probe set 11736100_a_at",2.74
same,"Fold change, CHKA","10 mg/ml, 24 h, vs control, probe set 11736285_a_at",2.27
same,"Fold change, CHKA","10 mg/ml, 24 h, vs control, probe set 11736286_a_at",3.00
same,"Fold change, PHLDB2","10 mg/ml, 24 h, vs control, probe set 11737039_a_at",2.96
same,"Fold change, PHLDB2","10 mg/ml, 24 h, vs control, probe set 11737041_a_at",2.45
same,"Fold change, PHLDB2","10 mg/ml, 24 h, vs control, probe set 11737042_s_at",2.97
same,"Fold change, PHLDB2","10 mg/ml, 24 h, vs control, probe set 11737043_x_at",2.47
same,"Fold change, NPC1","10 mg/ml, 24 h, vs control, probe set 11743916_a_at",6.53
same,"Fold change, FADS2","10 mg/ml, 24 h, vs control, probe set 11744899_a_at",2.64
same,"Fold change, FADS2","10 mg/ml, 24 h, vs control, probe set 11744902_a_at",2.09
same,"Fold change, FADS1///MIR1908","10 mg/ml, 24 h, vs control, probe set 11745459_a_at",4.20
same,"Fold change, LPCAT3","10 mg/ml, 24 h, vs control, probe set 11746281_a_at",2.31
same,"Fold change, NPC1","10 mg/ml, 24 h, vs control, probe set 11746723_a_at",4.53
same,"Fold change, LDLR","10 mg/ml, 24 h, vs control, probe set 11746974_a_at",2.99
same,"Fold change, MVK","10 mg/ml, 24 h, vs control, probe set 11747747_a_at",2.02
same,"Fold change, LDLR","10 mg/ml, 24 h, vs control, probe set 11748045_x_at",2.84
same,"Fold change, GBA///GBAP1","10 mg/ml, 24 h, vs control, probe set 11748292_a_at",2.57
same,"Fold change, POR","10 mg/ml, 24 h, vs control, probe set 11748368_x_at",2.03
same,"Fold change, PGS1","10 mg/ml, 24 h, vs control, probe set 11748428_a_at",2.41
same,"Fold change, DHCR24","10 mg/ml, 24 h, vs control, probe set 11749042_a_at",2.15
same,"Fold change, EBP","10 mg/ml, 24 h, vs control, probe set 11749332_x_at",2.66
same,"Fold change, PTGS1","10 mg/ml, 24 h, vs control, probe set 11749730_a_at",3.89
same,"Fold change, GBA","10 mg/ml, 24 h, vs control, probe set 11750975_x_at",2.68
same,"Fold change, GBA","10 mg/ml, 24 h, vs control, probe set 11751085_a_at",3.02
same,"Fold change, GBA","10 mg/ml, 24 h, vs control, probe set 11751086_x_at",2.37
same,"Fold change, GBA///GBAP1","10 mg/ml, 24 h, vs control, probe set 11751098_a_at",3.03
same,"Fold change, GBA///GBAP1","10 mg/ml, 24 h, vs control, probe set 11751099_x_at",2.75
same,"Fold change, DHCR24","10 mg/ml, 24 h, vs control, probe set 11751337_a_at",2.27
same,"Fold change, DHCR24","10 mg/ml, 24 h, vs control, probe set 11751338_x_at",2.26
same,"Fold change, FADS1///MIR1908","10 mg/ml, 24 h, vs control, probe set 11752670_a_at",4.05
same,"Fold change, GBA///GBAP1","10 mg/ml, 24 h, vs control, probe set 11753439_a_at",2.64
same,"Fold change, GBA///GBAP1","10 mg/ml, 24 h, vs control, probe set 11754819_x_at",2.59
same,"Fold change, HMGCS1","10 mg/ml, 24 h, vs control, probe set 11754918_s_at",2.32
same,"Fold change, FADS2","10 mg/ml, 24 h, vs control, probe set 11754939_x_at",2.11
same,"Fold change, LPCAT3","10 mg/ml, 24 h, vs control, probe set 11755123_x_at",2.37
same,"Fold change, FADS1///MIR1908","10 mg/ml, 24 h, vs control, probe set 11755251_x_at",4.13
same,"Fold change, APOD","10 mg/ml, 24 h, vs control, probe set 11756065_x_at",0.24
same,"Fold change, LPCAT3","10 mg/ml, 24 h, vs control, probe set 11757008_a_at",2.86
same,"Fold change, LPCAT3","10 mg/ml, 24 h, vs control, probe set 11757009_x_at",2.10
same,"Fold change, FDPS","10 mg/ml, 24 h, vs control, probe set 11758249_s_at",2.10
same,"REadj2, ABCA1",[1],979.20
same,"REadj2, ABHD4",[1],65.43
same,"REadj2, ABHD5",[1],212.72
same,"REadj2, ACAT2",[1],1280.94
same,"REadj2, AKR1C1",[1],3725.47
same,"REadj2, AKR1C2",[1],209.16
same,"REadj2, CH25H",[1],60.89
same,"REadj2, CYP51A1///LRRD1",[1],1291.92
same,"REadj2, DHCR7",[1],695.09
same,"REadj2, HMGCR",[1],395.78
same,"REadj2, HSD17B7",[1],91.10
same,"REadj2, HSD17B14",[1],46.74
same,"REadj2, IDI1",[1],1244.81
same,"REadj2, LPIN1",[1],240.89
same,"REadj2, LRP8",[1],93.15
same,"REadj2, MSMO1",[1],1789.72
same,"REadj2, MVD",[1],262.34
same,"REadj2, NEU1",[1],555.40

# Source: patent US20220267380A1, “Glycopeptides Increasing Lipid Synthesis” (TFCHEM, priority 2019, published 2022)
